In patent US11958842B2, “Substituted phenazines and methods of treating cancer and bacterial diseases” (Adjutec Pharma AS, priority 2016, dated 2024):
Where two headings read alike, the source gives them in different places.

Legend:
[1] = Parallel artificial membrane permeability assay (PAMPA); conditions: PAMPA, 50 μM in PBS, room temperature, five hours
hepG2 = test: Cytotoxicity (Example 73, Table 2); assay type: cell-based; conditions: Homo sapiens; hepG2, 24 hours of incubation; read-out: EC50 (μM) hepG2
Molm13 cells = test: Anti-AML activity, WST-1 viability (Example 72); assay type: cell-based; conditions: Homo sapiens, Molm 13 cells, WST-1
How it was run: (§1)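 Rat IPC-81 cells in DMEM with 10% horse serum and Molm13 cells in RPMI with 10% FBS, seeded at 150 000 cells/ml with compound dilution series. After 22 h exposure, WST-1 added for a further 2 h; absorbance read at 450 nm (620 nm reference) as viability.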

IPC-81 rat AML cells = test: Anti-AML activity, WST-1 viability (Example 72); assay type: cell-based; conditions: IPC81, IPC-81 cells
How it was run: as §1

[2] = tested on: human acute myeloid leukemia cell line MOLM-13; test: Cytotoxicity, WST-1 and nuclear morphology (Example 73); assay type: cell-based; conditions: Homo sapiens
How it was run: (§2)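 MOLM-13 (RPMI/FBS), NRK and H9c2 (DMEM/10% FBS) cells under 2% or 20% O2 at 37° C were exposed to analogues for 24 h (≤1% DMSO). Viability was read by WST-1, and cell death by Hoechst 33342 nuclear morphology; EC50 came from four-parameter regression.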

[3] = tested on: normal rat kidney epithelial (NRK) cells; test: as above; assay type: cell-based; conditions: Rattus norvegicus
How it was run: as §2

[4] = tested on: rat cardiomyoblast (H9c2) cells; test: as above; assay type: cell-based; conditions: Rattus norvegicus; H9c2, 19% O2, 24 hours of incubation; read-out: EC50 (μM) H9c2 19% O2
How it was run: as §2

LogPeff [1]: −5.29
IC50 (Molm13 cells; 2% O2, 24 h of incubation, read-out: Molm 13 IC50 2% O2): 1100 nM
IC50 (Molm13 cells; 20% O2, 24 h of incubation, read-out: Molm 13 IC50 20% O2): 1400 nM
Structure (SMILES): COc1cccc2c1[n+]([O-])c1cccc(O)c1[n+]2O [Example 5a, 1-hydroxy-6-methoxyphenazine 5.10-dioxide, reference compound]
EC50 (hepG2): 70 µM
IC50 (IPC-81 rat AML cells; 2% O2, 24 h of incubation, WST-1, read-out: IPC-81 IC50 2% O2): 3200 nM
IC50 (IPC-81 rat AML cells; 20% O2, 24 h of incubation, WST-1, read-out: IPC-81 IC50 20% O2): 2400 nM
EC50 ([2]; MOLM-13, 2% O2, 24 hours of incubation, read-out: EC50 (μM) MOLM-13 2% O2): 0.77 ± 0.13 µM
EC50 ([2]; MOLM-13, 19% O2, 24 hours of incubation, read-out: EC50 (μM) MOLM-13 19% O2): 1.4 ± 0.3 µM
EC50 ([3]; 2% O2, 24 hours of incubation, read-out: EC50 (μM) NRK 2% O2): 76 ± 14 µM
EC50 ([3]; 19% O2, 24 hours of incubation, read-out: EC50 (μM) NRK 19% O2): 77 ± 11 µM
EC50 [4]: 46 ± 4.1 µM
